{
  "source": "patent US5932717A",
  "about": "“Methods of obtaining DNA-RNA hybrids from sturgeon milt” (priority 1994, dated 1999)",
  "key": {"in vitro": {"experiment": "in vitro", "details": "human, mt-4 cells", "method": "(§1) The cells.--A continuous lymphoblast line of MT-4 cells was used in the study. The cells were propagated in a concentration of 0.2×10^6 cells/ml in RPMI-1640 medium with 15% fetal calf serum, 300 μg/ml L-glutamine and 100 μg/ml gentamycine. The cells were cultivated in suspension in 24-well plates of NUNCLON Company.\n(§2) The viability of the cells was determined by staining with 0.4% trypan blue.\n(§3) Cytotoxicity of the preparations was determined in 24-well plastic plates. Each well of the panel was filled with 1 ml of cell suspension in a concentration 0.2×10^6 cells/ml after which to different wells various doses of chemopreparations were added: 1600, 1000, and 400 μg/ml. After treatment of the cells with the chemopreparations the panels with the cells were placed into a thermostat and incubated at 37° C. in an atmosphere of 5% CO2 and 98% humidity for 3-5 days. At the end of this term the results were read by the number of live and dead cells in the individual wells of the plate."}, "MT-4 cell": {"tested_on": "MT-4 cell", "details": "MT-4, 5 ug/ml", "method": "as §1, §2, §3"}},
  "data": [
    {"smiles": "Cc1cn([C@H]2C[C@H](N=[N+]=[N-])[C@@H](CO)O2)c(=O)[nH]c1=O", "note": "[Azidothymidine, azidothymidine]", "values": [
      {"measurement": "viability", "setting": "in vitro", "value": 17.5, "unit": "%"},
      {"measurement": "Cell concentration per ml × 10^6", "setting": "MT-4 cell; cell control 0.56", "value": 0.16, "unit": "per ml × 10^6"},
      {"measurement": "Proliferation index", "setting": "MT-4 cell; cell control 2.80", "value": 1.0}
    ]}
  ]
}
